In PMC9103625, “The Role of the Nucleotides in the Insertion of the bis-Molybdopterin Guanine Dinucleotide Cofactor into apo-Molybdoenzymes” (Molecules, 2022):

How the values were obtained:
MobA = target: T1, MobA (Escherichia coli, UniProt P32173); experiment: conversion to bis-MGD, HPLC of FormA-GMP; assay type: biochemical; settings: 3 µM MobA, 1 mM GTP, 1 mM MgCl2, 5 min, room temperature, bis-Mo-MPT from 30 µM YdhV
T1 construct: from plasmid pCT800A, Ni-NTA and size exclusion purified; monomer
T1 sequence (P32173 1-194): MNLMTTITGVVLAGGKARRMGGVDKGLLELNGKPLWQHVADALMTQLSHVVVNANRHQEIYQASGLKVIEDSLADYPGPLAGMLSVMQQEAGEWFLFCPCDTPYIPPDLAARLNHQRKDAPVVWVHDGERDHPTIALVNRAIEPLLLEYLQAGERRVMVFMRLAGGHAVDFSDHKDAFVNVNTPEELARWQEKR

apo-TorA = target: T2, apo-TorA (Escherichia coli, UniProt P33225); experiment: in vitro reconstitution, gel filtration, HPLC of FormA-GMP; assay type: binding; settings: 1.3 µM apo-TorA, bis-MGD extracted from wtTorA, saturation at 25 µM donor, 7 h, 37 °C, pH 7.2, anaerobic
T2 construct: from plasmid pJF119EH, Ni-NTA and size exclusion purified; cofactor-free apo-enzyme reconstituted in vitro
T2 sequence (P33225 40-848): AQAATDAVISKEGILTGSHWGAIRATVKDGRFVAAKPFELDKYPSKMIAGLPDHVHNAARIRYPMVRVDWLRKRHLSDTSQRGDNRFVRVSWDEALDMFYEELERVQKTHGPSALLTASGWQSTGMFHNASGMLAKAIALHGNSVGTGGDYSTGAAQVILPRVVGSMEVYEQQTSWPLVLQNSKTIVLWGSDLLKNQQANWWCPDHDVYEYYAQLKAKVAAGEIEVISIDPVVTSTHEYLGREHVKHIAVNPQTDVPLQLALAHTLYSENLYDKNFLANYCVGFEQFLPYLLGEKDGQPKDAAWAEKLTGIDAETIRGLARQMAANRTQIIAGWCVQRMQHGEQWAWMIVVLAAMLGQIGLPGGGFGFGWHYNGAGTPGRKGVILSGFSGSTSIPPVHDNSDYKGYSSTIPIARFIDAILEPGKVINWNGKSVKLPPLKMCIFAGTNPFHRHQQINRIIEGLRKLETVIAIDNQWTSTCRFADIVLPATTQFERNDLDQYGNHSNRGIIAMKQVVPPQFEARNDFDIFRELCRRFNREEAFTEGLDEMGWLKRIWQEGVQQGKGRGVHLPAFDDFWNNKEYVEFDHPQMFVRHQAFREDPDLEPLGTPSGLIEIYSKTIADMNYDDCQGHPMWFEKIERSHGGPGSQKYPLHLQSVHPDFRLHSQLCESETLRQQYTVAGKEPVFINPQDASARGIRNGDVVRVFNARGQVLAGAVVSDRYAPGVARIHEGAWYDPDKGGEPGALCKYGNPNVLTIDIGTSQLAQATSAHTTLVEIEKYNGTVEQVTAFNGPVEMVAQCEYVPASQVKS

apo-YdhV = target: T3, apo-YdhV (Escherichia coli, UniProt P76192); experiment: in vitro reconstitution, gel filtration, HPLC of dephospho-FormA; assay type: binding; settings: 1.3 µM apo-YdhV, 7 h, 37 °C, pH 7.2, anaerobic, cofactor from alkaline phosphatase treatment
T3 construct: from plasmid SR153, expressed in E. coli RK5200, Ni-NTA and size exclusion purified; cofactor-free apo-protein
T3 sequence (P76192 1-700): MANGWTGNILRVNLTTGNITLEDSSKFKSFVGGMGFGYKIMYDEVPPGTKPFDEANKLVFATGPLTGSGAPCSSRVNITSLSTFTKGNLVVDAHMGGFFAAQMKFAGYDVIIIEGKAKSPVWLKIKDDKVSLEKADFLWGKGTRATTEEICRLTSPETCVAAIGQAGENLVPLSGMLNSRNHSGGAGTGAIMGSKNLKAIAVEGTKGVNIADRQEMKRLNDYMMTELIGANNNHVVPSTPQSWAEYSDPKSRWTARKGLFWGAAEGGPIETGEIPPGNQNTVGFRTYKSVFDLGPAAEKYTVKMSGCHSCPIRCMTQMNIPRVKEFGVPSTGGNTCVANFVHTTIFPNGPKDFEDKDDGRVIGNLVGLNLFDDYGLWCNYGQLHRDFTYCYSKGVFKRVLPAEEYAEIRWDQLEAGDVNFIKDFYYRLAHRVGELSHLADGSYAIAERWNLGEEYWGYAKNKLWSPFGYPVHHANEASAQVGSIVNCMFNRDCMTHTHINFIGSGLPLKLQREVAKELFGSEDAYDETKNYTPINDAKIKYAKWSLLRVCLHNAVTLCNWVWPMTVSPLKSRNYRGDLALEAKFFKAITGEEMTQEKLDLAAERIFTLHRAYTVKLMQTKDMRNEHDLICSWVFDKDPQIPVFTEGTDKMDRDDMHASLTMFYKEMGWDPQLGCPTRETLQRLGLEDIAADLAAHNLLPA

Q: `Nc1nc2c(ncn2[C@@H]2O[C@H](COP(=O)(O)OP(=O)(O)OP(=O)(O)O)[C@@H](O)[C@H]2O)c(=O)[nH]1` [GTP] was tested. Which “conversion to bis-MGD, HPLC of FormA-GMP” value (MobA) did it give?
A: we converted bis-Mo-MPT into bis-MGD by the attachment of nucleotides using MobA and Mg-GTP

Q: Which “% bis-MGD saturation (maximum)” value (apo-TorA) does the source give for `Nc1nc2c(c(=O)[nH]1)N[C@H]1C([S-])=C([S-])[C@@H](COP(=O)([O-])OP(=O)([O-])OC[C@H]3O[C@@H](n4cnc5c(=O)[nH]c(N)nc54)[C@H](O)[C@@H]3O)O[C@H]1N2.Nc1nc2c(c(=O)[nH]1)N[C@H]1C([S-])=C([S-])[C@@H](COP(=O)([O-])OP(=O)([O-])OC[C@H]3O[C@@H](n4cnc5c(=O)[nH]c(N)nc54)[C@H](O)[C@@H]3O)O[C@H]1N2.[O]=[Mo+4]` [bis-MGD] here?
A: 61.9%

Q: For dephospho-bis-Mo-MPT, which “% bound at 100 μM donor” value (apo-YdhV) is on record?
A: 25.1%
